Assay results reported in patent publication US6440957B1, “Cephalosporines having cyclic aminoguanidine substituents as antibiotics” (Biochemie Gesellschaft m.b.H., priority 1998, dated 2002).
Converted amounts (≈) assume the structure as drawn.

Legend:
Experiment in all cases: Agar Dilution Test (NCCLS), MIC
Type in all cases: cell-based
[1] = system: E. coli strain ATCC 10536; details: Escherichia coli, ATCC10536
From the text: (§1) In particular, the active compounds of the invention show antimicrobial, e.g. antibacterial, activity against e.g. gram negative and gram positive bacteria, e.g. […] bacteria such as Pseudomonas, e.g. Pseudomonas aeruginosa; Escherichia, e.g. Escherichia coli; Enterobacter, e.g. Enterobacter cloacae; Klebsiella, e.g. Klebsiella edwardsii, Klebsiella pneumoniae; Enterococcus, e.g. Enterococcus faecalis; Moraxella, e.g. Moraxell catarrhalis; Streptococcus, e.g. Streptococcus pneumoniae, Streptococcus pyogenes; and Staphylococcus, e.g. Staphylococcus aureus; in vitro in the Agar Dilution Test according to National Commitee for Clinical Laboratory Standards (NCCLS) 1993, Document M7-A3Vol.13, No. 25: “Methods for dilution Antimicrobial Susceptibility Tests for Bacteria that Grow Aerobically—Third Edition, Approved Standard”. […] The active compounds of the invention show an surprising overall activity spectrum.

[2] = system: E. coli strain ATCC 35218; details: Escherichia coli, ATCC35218
From the text: as §1

[3] = system: Klebsiella edwardsii, strain ATCC 10896; details: ATCC10896, Example 48 tested in form of the hydrochloride
From the text: as §1

[4] = system: Enterobacter cloacae strains
From the text: as §1

| MIC [1] [µg/mL] | MIC [2] [µg/mL] | MIC [4] [µg/mL] | Structure (SMILES) | MIC [3] [µg/mL] |
| --- | --- | --- | --- | --- |
| < 0.0125 | < 0.0125 | < 0.0125 | CCN1CCN(N=CC2=C(C(=O)O)N3C(=O)C(NC(=O)/C(=N\OCF)c4nsc(N)n4)[C@H]3SC2)C1=NC (some centres unmarked) [Example 48, 7-{[(5-amino-1,2,4-thiadiazole-3-yl)-(Z)-(fluoromethoxyimino)-acetyl]amino}-3-{[(3-ethyl-2-methylimino-imidazolidine-1-yl)imino]methyl}-3-cephem-4-carboxylic acid] | ~0.8 (≈ 1.44 µM) |
|  |  |  | CC(C)(O/N=C(\C(=O)N[C@@H]1C(=O)N2C(C(=O)[O-])=C(C[n+]3ccccc3)CS[C@H]12)c1csc(N)n1)C(=O)O [ceftazidime, reference compound] | ~1.6 (≈ 2.93 µM) |
